How the values were obtained:
Format in all cases: cell-based, mouse
MuRF-1 = MuRF-1 mRNA expression level in myotubes (qPCR); conditions: 40 μM
Experimental: (§1) The C2C12 mouse myoblast cell line was cultured in a culture medium containing 90% DMEM/HG, 10% fetal bovine serum (FBS), and 100 unit/ml penicillin/streptomycin at 37° C. under 5% CO2 condition.
(§2) 100,000 cells were seeded in 6-well plate. After 4 days, the medium was replaced with a differentiation medium containing 5% horse serum and 100 unit/ml penicillin/streptomycin, and 95% DMEM/HG for differentiation into myotubes at 100% confluence. Here, the date on which the culture medium was replaced with the differentiation medium was designated as day 0, and the differentiation medium was replaced with fresh differentiation medium every day from day 3 to day 5.
(§3) The medium was removed on day 5 to induce muscle atrophy and/or muscle loss, and the culture medium was treated with mitomycin C (hereinafter referred to as MMC) at concentrations of 20 μM, 40 μM, and 100 μM for 24 hours, respectively. An optical microscopic observation was used to identify changes that occurred during the process of muscle atrophy and/or muscle loss. […]
(§4) RNA was extracted from the cells using AccuPrep®Universal RNA Extraction Kit (Bioneer). CDNA was synthesized using SuperScript™ IV Reverse Transcriptase purchased from Invitrogen, and quantitative real-time polymerase chain reaction (qPCR) was performed using PowerSYBR green PCR Master Mix from Applied biosystem to confirm the mRNA expression level. […]

C2C12 myotubes = experiment: Morphological changes in myotubes by optical microscopic observation
Experimental: as §1, §2
as §3, with “loss. After a predetermined period of time, the medium was removed, and the cells were treated with 0.25% trypsin-ethylene diamine tetra-acetic acid (EDTA, Gibco), and the cells were collected in a culture medium, followed by centrifugation at 1,500 rpm for 3 minutes.” for “loss.”

Atrogin-1 = Atrogin-1 mRNA expression level in myotubes (qPCR); conditions: 40 μM
Experimental: as §1, §2, §3, §4

[1] = C2C12 myotubes, 24 hours, compared with 20 μM, dexamethasone 100 μM and control (FIG. 5)
[2] = serum-free medium, 24 hours (FIG. 7)

## CO[C@@]12[C@H](COC(N)=O)C3=C(C(=O)C(C)=C(N)C3=O)N1C[C@@H]1N[C@@H]12 [mitomycin C]
MuRF-1; [1]
  mRNA expression level of MuRF-1: the highest
MuRF-1; [2]
  mRNA expression level of MuRF-1: maintained in an increased state
C2C12 myotubes; C2C12 myotubes, 40 μM or less, 24-hour treatment, vs untreated control (FIG. 4)
  thickness, length, and number of myotubes: significantly reduced
C2C12 myotubes; serum-free medium, 40 μM, 24 hours (FIG. 6)
  thickness, length, and number of myotubes: significant decrease
Atrogin-1; [1]
  mRNA expression level of Atrogin-1: the highest
Atrogin-1; [2]
  mRNA expression level of Atrogin-1: maintained in an increased state

Source: US20260276626A1, “METHOD FOR SCREENING THERAPEUTIC AGENT FOR MUSCLE WEAKNESS-RELATED DISEASES” (ENCELL CO., LTD., priority 2023, published 2026)
